Experimental data as given in patent US20230227511A1, “THERAPEUTIC OR […] FOR INFECTIOUS DISEASE” (NIPPON MEDICAL SCHOOL FOUNDATION, priority 2020, published 2023).

What was measured:
sepsis mouse models = test: Administration of the 50-amino acid peptide (PTX3N50) to sepsis mouse models; type: in vivo; conditions: peptide not fused to Fc
[1] = test system: vascular endothelial cells; conditions: Patent Document 1; cited from earlier work

PTX3N50: 50-amino acid peptide on the N-terminal side of PTX3, not fused to Fc (ENSDDYDLMYVNLDNEIDNGLHPTEDPTPCACGQEHSEWDKLFIMLENSQ; UniProt P26022 18-67, looked up, fragment)
survival percentage of the sepsis mouse models (sepsis mouse models): could not improve the survival percentage | action to suppress histone cytotoxicity against vascular endothelial cells [1]: has an action to suppress histone cytotoxicity
